Assays:
Format in all cases: in vivo
[1] = system: pigweed (Amaranthus retroflexus); assay: Test A preemergence, pigweed; details: 0 to 100 scale (0 no effect, 100 complete control)
Source text: (§1) Seeds of barnyardgrass (Echinochloa crus-galli), large crabgrass (Digitaria sanguinalis), giant foxtail (Setaria faberi), morningglory (Ipomoea spp.), pigweed (Amaranthus retroflexus), velvetleaf (Abutilon theophrasti), wheat (Triticum aestivum), and corn (Zea mays) were planted into a blend of loam soil and sand and treated preemergence with a directed soil spray using test chemicals formulated in a non-phytotoxic solvent mixture which included a surfactant. At the same time these species were also treated with postemergence applications of test compounds formulated in the same manner. Plants ranged in height from two to ten cm and were in the one- to two-leaf stage for the postemergence treatment. Treated plants and untreated controls were maintained in a greenhouse for approximately ten days, after which time all treated plants were compared to untreated controls and visually evaluated for injury. Plant response ratings, summarized in Table A, are based on a 0 to 100 scale where 0 is no effect and 100 is complete control. A dash (-) response means no test result.

rice (Oryza sativa) = assay: Test B flooded paddy test, rice; details: Flood, scale 0 to 100
Source text: (§2) Plant species in the flooded paddy test consisted of rice (Oryza sativa), umbrella sedge (Cyperus difformis), ducksalad (Heteranthera limosa) and barnyardgrass (Echinochloa crus-galli) grown to the 2-leaf stage for testing. At time of treatment, test pots were flooded to 3 cm above the soil surface, treated by application of test compounds directly to the paddy water, and then maintained at that water depth for the duration of the test. Treated plants and controls were maintained in a greenhouse for 13 to 15 days, after which time all species were compared to controls and visually evaluated. Plant response ratings, summarized in Table B, are based on a scale of 0 to 100 where 0 is no effect and 100 is complete control. A dash (-) response means no test result.

[2] = system: barnyardgrass (Echinochloa crus-galli); assay: Test A preemergence, barnyardgrass; details: 0 to 100 scale (0 no effect, 100 complete control)
Source text: as §1

corn (Zea mays) [3] = assay: Test A postemergence, corn; details: 0 to 100 scale (0 no effect, 100 complete control)
Source text: as §1

[4] = system: wheat (Triticum aestivum); assay: Test A preemergence, wheat; details: 0 to 100 scale (0 no effect, 100 complete control)
Source text: as §1

[5] = system: velvetleaf (Abutilon theophrasti); assay: Test A postemergence, velvetleaf; details: 0 to 100 scale (0 no effect, 100 complete control)
Source text: as §1

[6] = system: velvetleaf (Abutilon theophrasti); assay: Test A preemergence, velvetleaf; details: 0 to 100 scale (0 no effect, 100 complete control)
Source text: as §1

[7] = system: morningglory (Ipomoea spp.); assay: Test A preemergence, morningglory; details: 0 to 100 scale (0 no effect, 100 complete control)
Source text: as §1

corn (Zea mays) [8] = assay: Test A preemergence, corn; details: 0 to 100 scale (0 no effect, 100 complete control)
Source text: as §1

[9] = system: large crabgrass (Digitaria sanguinalis); assay: Test A preemergence, large crabgrass; details: 0 to 100 scale (0 no effect, 100 complete control)
Source text: as §1

[10] = system: morningglory (Ipomoea spp.); assay: Test A postemergence, morningglory; details: 0 to 100 scale (0 no effect, 100 complete control)
Source text: as §1

[11] = system: pigweed (Amaranthus retroflexus); assay: Test A postemergence, pigweed; details: 0 to 100 scale (0 no effect, 100 complete control)
Source text: as §1

[12] = system: wheat (Triticum aestivum); assay: Test A postemergence, wheat; details: 0 to 100 scale (0 no effect, 100 complete control)
Source text: as §1

[13] = system: giant foxtail (Setaria faberi); assay: Test A postemergence, giant foxtail; details: 0 to 100 scale (0 no effect, 100 complete control)
Source text: as §1

[14] = system: barnyardgrass (Echinochloa crus-galli); assay: Test B flooded paddy test, barnyardgrass; details: Flood
Source text: as §2

[15] = system: umbrella sedge (Cyperus difformis); assay: Test B flooded paddy test, umbrella sedge; details: Flood, scale 0 to 100
Source text: as §2

[16] = system: large crabgrass (Digitaria sanguinalis); assay: Test A postemergence, large crabgrass; details: 0 to 100 scale (0 no effect, 100 complete control)
Source text: as §1

[17] = system: ducksalad (Heteranthera limosa); assay: Test B flooded paddy test, ducksalad; details: Flood, scale 0 to 100
Source text: as §2

[18] = system: giant foxtail (Setaria faberi); assay: Test A preemergence, giant foxtail; details: 0 to 100 scale (0 no effect, 100 complete control)
Source text: as §1

[19] = system: barnyardgrass (Echinochloa crus-galli); assay: Test A postemergence, barnyardgrass; details: 0 to 100 scale (0 no effect, 100 complete control)
Source text: as §1

[20] = 250 g ai/ha, scale 0 to 100 (0 no effect, 100 complete control)

CC1(C)CC([S+]([O-])Cc2c(C(F)(F)F)nc3n(c2=O)CCC3)=NO1 (stereo not drawn) [Compound 10, 3-[[(4,5-dihydro-5,5-dimethyl-3-isoxazolyl)sulfinyl]methyl]-7,8-dihydro-2-(trifluoromethyl)pyrrolo[1,2-α]pyrimidin-4(6H)-one]
Plant response rating, Pigweed ([1]; 125 g ai/ha): 0 | Plant response rating, Pigweed ([1]; 500 g ai/ha): 0 | Plant response rating, Rice (rice (Oryza sativa); 31 g ai/ha): 0 | Plant response rating, Rice (rice (Oryza sativa); 62 g ai/ha): 0 | Plant response rating, Rice (rice (Oryza sativa); 125 g ai/ha): 0 | Plant response rating, Rice (rice (Oryza sativa); 250 g ai/ha): 0 | Plant response rating, Barnyardgrass ([2]; 125 g ai/ha): 0 | Plant response rating, Barnyardgrass ([2]; 500 g ai/ha): 70 | Plant response rating, Corn (corn (Zea mays) [3]; 125 g ai/ha): 0 | Plant response rating, Corn (corn (Zea mays) [3]; 500 g ai/ha): 20 | Plant response rating, Wheat ([4]; 125 g ai/ha): 0 | Plant response rating, Wheat ([4]; 500 g ai/ha): 30 | Plant response rating, Velvetleaf ([5]; 125 g ai/ha): 10 | Plant response rating, Velvetleaf ([5]; 500 g ai/ha): 40 | Plant response rating, Velvetleaf ([6]; 125 g ai/ha): 0 | Plant response rating, Velvetleaf ([6]; 500 g ai/ha): 0 | Plant response rating, Morningglory ([7]; 125 g ai/ha): 0 | Plant response rating, Morningglory ([7]; 500 g ai/ha): 0 | Plant response rating, Corn (corn (Zea mays) [8]; 125 g ai/ha): 0 | Plant response rating, Corn (corn (Zea mays) [8]; 500 g ai/ha): 10 | Plant response rating, Crabgrass, Large ([9]; 125 g ai/ha): 0 | Plant response rating, Crabgrass, Large ([9]; 500 g ai/ha): 80 | Plant response rating, Morningglory ([10]; 125 g ai/ha): 10 | Plant response rating, Morningglory ([10]; 500 g ai/ha): 20 | Plant response rating, Pigweed ([11]; 125 g ai/ha): 10 | Plant response rating, Pigweed ([11]; 500 g ai/ha): 30 | Plant response rating, Wheat ([12]; 125 g ai/ha): 0 | Plant response rating, Wheat ([12]; 500 g ai/ha): 20 | Plant response rating, Foxtail, Giant ([13]; 125 g ai/ha): 30 | Plant response rating, Foxtail, Giant ([13]; 500 g ai/ha): 70 | Plant response rating, Barnyardgrass ([14]; 31 g ai/ha, scale 0 to 100): 0 | Plant response rating, Barnyardgrass ([14]; 62 g ai/ha, scale 0 to 100): 0 | Plant response rating, Barnyardgrass ([14]; 125 g ai/ha, scale 0 to 100): 0 | Plant response rating, Barnyardgrass [14, 20]: 0 | Plant response rating, Sedge, Umbrella ([15]; 31 g ai/ha): 0 | Plant response rating, Sedge, Umbrella ([15]; 62 g ai/ha): 0 | Plant response rating, Sedge, Umbrella ([15]; 125 g ai/ha): 0 | Plant response rating, Sedge, Umbrella ([15]; 250 g ai/ha): 0 | Plant response rating, Crabgrass, Large ([16]; 125 g ai/ha): 40 | Plant response rating, Crabgrass, Large ([16]; 500 g ai/ha): 70 | Plant response rating, Ducksalad ([17]; 31 g ai/ha): 0 | Plant response rating, Ducksalad ([17]; 62 g ai/ha): 0 | Plant response rating, Ducksalad ([17]; 125 g ai/ha): 0 | Plant response rating, Ducksalad ([17]; 250 g ai/ha): 0 | Plant response rating, Foxtail, Giant ([18]; 125 g ai/ha): 20 | Plant response rating, Foxtail, Giant ([18]; 500 g ai/ha): 80 | Plant response rating, Barnyardgrass ([19]; 125 g ai/ha): 30 | Plant response rating, Barnyardgrass ([19]; 500 g ai/ha): 80

CC1(C)CC([S+]([O-])Cc2c(C(F)(F)Cl)nc3n(c2=O)CCC3)=NO1 (stereo not drawn) [Compound 17]
Plant response rating, Pigweed ([1]; 125 g ai/ha): 0 | Plant response rating, Pigweed ([1]; 500 g ai/ha): 0 | Plant response rating, Rice (rice (Oryza sativa); 31 g ai/ha): 0 | Plant response rating, Rice (rice (Oryza sativa); 62 g ai/ha): 0 | Plant response rating, Rice (rice (Oryza sativa); 125 g ai/ha): 0 | Plant response rating, Rice (rice (Oryza sativa); 250 g ai/ha): 0 | Plant response rating, Barnyardgrass ([2]; 125 g ai/ha): 20 | Plant response rating, Barnyardgrass ([2]; 500 g ai/ha): 60 | Plant response rating, Corn (corn (Zea mays) [3]; 125 g ai/ha): 0 | Plant response rating, Corn (corn (Zea mays) [3]; 500 g ai/ha): 0 | Plant response rating, Wheat ([4]; 125 g ai/ha): 0 | Plant response rating, Wheat ([4]; 500 g ai/ha): 0 | Plant response rating, Velvetleaf ([5]; 125 g ai/ha): 0 | Plant response rating, Velvetleaf ([5]; 500 g ai/ha): 10 | Plant response rating, Velvetleaf ([6]; 125 g ai/ha): 0 | Plant response rating, Velvetleaf ([6]; 500 g ai/ha): 0 | Plant response rating, Morningglory ([7]; 125 g ai/ha): 0 | Plant response rating, Morningglory ([7]; 500 g ai/ha): 0 | Plant response rating, Corn (corn (Zea mays) [8]; 125 g ai/ha): 0 | Plant response rating, Corn (corn (Zea mays) [8]; 500 g ai/ha): 0 | Plant response rating, Crabgrass, Large ([9]; 125 g ai/ha): 40 | Plant response rating, Crabgrass, Large ([9]; 500 g ai/ha): 80 | Plant response rating, Morningglory ([10]; 125 g ai/ha): 0 | Plant response rating, Morningglory ([10]; 500 g ai/ha): 0 | Plant response rating, Pigweed ([11]; 125 g ai/ha): 0 | Plant response rating, Pigweed ([11]; 500 g ai/ha): 10 | Plant response rating, Wheat ([12]; 125 g ai/ha): 0 | Plant response rating, Wheat ([12]; 500 g ai/ha): 20 | Plant response rating, Foxtail, Giant ([13]; 125 g ai/ha): 30 | Plant response rating, Foxtail, Giant ([13]; 500 g ai/ha): 60 | Plant response rating, Barnyardgrass ([14]; 31 g ai/ha, scale 0 to 100): 0 | Plant response rating, Barnyardgrass ([14]; 62 g ai/ha, scale 0 to 100): 0 | Plant response rating, Barnyardgrass ([14]; 125 g ai/ha, scale 0 to 100): 0 | Plant response rating, Barnyardgrass [14, 20]: 0 | Plant response rating, Sedge, Umbrella ([15]; 31 g ai/ha): 0 | Plant response rating, Sedge, Umbrella ([15]; 62 g ai/ha): 0 | Plant response rating, Sedge, Umbrella ([15]; 125 g ai/ha): 0 | Plant response rating, Sedge, Umbrella ([15]; 250 g ai/ha): 0 | Plant response rating, Crabgrass, Large ([16]; 125 g ai/ha): 20 | Plant response rating, Crabgrass, Large ([16]; 500 g ai/ha): 50 | Plant response rating, Ducksalad ([17]; 31 g ai/ha): 0 | Plant response rating, Ducksalad ([17]; 62 g ai/ha): 0 | Plant response rating, Ducksalad ([17]; 125 g ai/ha): 0 | Plant response rating, Ducksalad ([17]; 250 g ai/ha): 0 | Plant response rating, Foxtail, Giant ([18]; 125 g ai/ha): 30 | Plant response rating, Foxtail, Giant ([18]; 500 g ai/ha): 80 | Plant response rating, Barnyardgrass ([19]; 125 g ai/ha): 0 | Plant response rating, Barnyardgrass ([19]; 500 g ai/ha): 60

From patent publication US20100099561A1, “HETEROBICYCLIC ALKYLTHIO-BRIDGED ISOXAZOLINES” (E.I. DU PONT DE NEMOURS AND COMPANY, priority 2008, published 2010)
